What was measured:
Assay type in all cases: cell-based
[1] = system: cultured rat hippocampal neurons transfected with parkin shRNA; assay: Mitochondrial fragmentation in neurons transfected with parkin shRNA (immunocytochemistry); settings: AA 48 hours, CsA 24 hours, Ru360 24 hours; for dendritic mitochondrial fragmentation induced by parkin knockdown (FIG. 4): VDAC1 shRNA 72 hours transfection, parkin shRNA at 13 DIV; for relative numbers of the neurons containing fragmented mitochondria (FIG. 5): parkin-knockdowned hippocampal neurons, VDAC1 shRNA 72 hours
Excerpt: EGFP was used as a fluorescence marker to confirm the transfection of neuron with shRNA vector, and DsRed2-mito [pDsRed2-mito (Clontech)] was used as a fluorescence marker to observe mitochondria in neurons.

[2] = system: cultured rat hippocampal neurons transfected with PINK1 shRNA; assay: Mitochondrial fragmentation in neurons transfected with PINK1 shRNA (immunocytochemistry); settings: AA 48 hours, CsA 24 hours, Ru360 24 hours; for dendritic mitochondrial fragmentation induced by knockdown of PINK1 (FIG. 7): VDAC1 shRNA 72 hours transfection, PINK1 shRNA at 13 DIV; for relative number of the neurons containing fragmented mitochondria (FIG. 8): PINK1-knockdowned hippocampal neurons, VDAC1 shRNA 72 hours
[3] = system: parkin null mouse mDA neurons; assay: Mitochondrial defects of parkin null mouse mDA neurons (immunocytochemistry); settings: for level of the elongated mitochondria (FIG. 9): parkin null mDA neurons treated for 24 hours, 7 DIV; for relative numbers of the neurons containing fragmented mitochondria (FIG. 10): parkin null mouse mDA neurons, compared to heterozygous littermates
Experimental: (§1) Primary mouse DA neuron cultures were prepared from embryonic day (E) 13.5 mouse midbrain of parkin heterogeneous(+/−) and null(−/−) embryos [Neurobasal Media (Invitrogen)].

[4] = system: parkin null mouse mDA neurons; assay: Synaptic activity (mEPSCs) of parkin null mouse mDA neurons; settings: condition same as Experiment 6
Experimental: as §1
It was examined whether PINK1-Parkin-VDAC1 pathway regulates the synaptic activity of the mDA neurons. To this end, the frequency and amplitude of miniature excitatory postsynaptic currents (mEPSCs) of parkin heterozygous and null mouse mDA neurons were measured.

## C[C@H]1[C@H](C)CC[C@]2(C(=O)O)CC[C@]3(C)C(=CC[C@@H]4[C@@]5(C)C[C@@H](O)[C@H](O)[C@@](C)(CO)[C@@H]5CC[C@]43C)[C@H]12 [AA, asiatic acid]
[1]
  dendritic mitochondrial fragmentation induced by parkin knockdown (FIG. 4): suppressed the dendritic mitochondrial fragmentation induced by parkin knockdown
  relative numbers of the neurons containing fragmented mitochondria (FIG. 5): prevents dendritic mitochondrial fragmentation in parkin-knockdowned hippocampal neurons and/or restores the fragmented mitochondria to normal elongated morphology
[2]
  dendritic mitochondrial fragmentation induced by knockdown of PINK1 (FIG. 7): suppressed the dendritic mitochondrial fragmentation induced by knockdown of PINK1
  relative number of the neurons containing fragmented mitochondria (FIG. 8): prevents dendritic mitochondrial fragmentation in PINK1-knockdowned hippocampal neurons and/or restores the fragmented mitochondria to normal elongated morphology
[3]
  level of the elongated mitochondria (FIG. 9): showed a significantly restored level of the elongated mitochondria
  relative numbers of the neurons containing fragmented mitochondria (FIG. 10): significantly prevented mitochondrial fragmentation in parkin null mouse mDA neurons
[4]
  frequency of mEPSCs (FIG. 12a): restored the frequency of mEPSCs up to the level of heterozygotic neurons

## Ru360
[1]
  dendritic mitochondrial fragmentation induced by parkin knockdown (FIG. 4): suppressed the dendritic mitochondrial fragmentation induced by parkin knockdown
  relative numbers of the neurons containing fragmented mitochondria (FIG. 5): prevents dendritic mitochondrial fragmentation in parkin-knockdowned hippocampal neurons and/or restores the fragmented mitochondria to normal elongated morphology
[2]
  dendritic mitochondrial fragmentation induced by knockdown of PINK1 (FIG. 7): suppressed the dendritic mitochondrial fragmentation induced by knockdown of PINK1
  relative number of the neurons containing fragmented mitochondria (FIG. 8): prevents dendritic mitochondrial fragmentation in PINK1-knockdowned hippocampal neurons and/or restores the fragmented mitochondria to normal elongated morphology
[3]
  level of the elongated mitochondria (FIG. 9): showed a significantly restored level of the elongated mitochondria
  relative numbers of the neurons containing fragmented mitochondria (FIG. 10): significantly prevented mitochondrial fragmentation in parkin null mouse mDA neurons
[4]
  frequency of mEPSCs (FIG. 12a): restored the frequency of mEPSCs up to the level of heterozygotic neurons

## cyclosporine A [CsA]
[1]
  dendritic mitochondrial fragmentation induced by parkin knockdown (FIG. 4): suppressed the dendritic mitochondrial fragmentation induced by parkin knockdown
[2]
  dendritic mitochondrial fragmentation induced by knockdown of PINK1 (FIG. 7): suppressed the dendritic mitochondrial fragmentation induced by knockdown of PINK1
